Data as given in patent US20090286804A1, “METABOLITES OF 1-[6-(1-ETHYL-1-HYDROXY-PROPYL)-PYRIDIN-3-YL]-3-[2-(4-METHYL-PIPERAZIN-1-YL)-BENZYL]-PYRROLIDIN-2-ONE AS SERATONIN RECEPTOR ANTAGONISTS” (Pfizer Inc, priority 2005, published 2009).

Target: serotonin-1 receptors (5-HT1A and/or 5-HT1B)
Assay: radioligand binding assay for serotonin-1 receptor affinity (IC50)
Details: receptor subtype not given
Description: The affinities of the compounds of this invention for the various serotonin-1 receptors can be determined using standard radioligand binding assays as described in the literature. The 5-HT1A affinity can be measured using the procedure of Hoyer et al. (Brain Res., 376, 85 (1986)). The 5-HT1B affinity can be measured using the procedure of Heuring and Peroutka (J. Neurosci., 7, 894 (1987)).
The in vitro activity of the compounds of the present invention at the 5-HT1B binding site can be determined according to the following procedure. Bovine caudate tissue is homogenized and suspended in 20 volumes of a buffer containing 50 mM TRIS•hydrochloride (tris[hydroxymethyl]aminomethane hydrochloride) at a pH of 7.7. The homogenate is then centrifuged at 45,000 G for 10 minutes. The supernatant is then discarded and the resulting pellet resuspended in approximately 20 volumes of 50 mM TRIS•hydrochloride buffer at pH 7.7. […]
The inhibitor, control or vehicle is then incubated according to the following procedure. […] The percent inhibition can be calculated for each dose of the compound. An IC50 value can then be calculated from the percent inhibition values.
The activity of the compounds of the present invention for 5-HT1A binding ability can be determined according to the following procedure. […] The tissue is stored at −70° C. until ready for an experiment. […]

IC50: ≤ 100 nM
SMILES: CCC(O)(c1ccc(N2CC[C@@H](Cc3ccccc3N3CCN(C)CC3)C2=O)cn1)C(C)O (stereo in doubt) [Formula I, 1-[6-(1-ethyl-1,2-dihydroxy-propyl)-pyridin-3-yl]-3-[2-(4-methyl-piperazin-1-yl)-benzyl]-pyrrolidin-2-one]
